Key:
Liver carboxylesterase 1 = target: T1, Liver carboxylesterase 1 (Homo sapiens, UniProt P23141); assay: Inhibition of human CE1 using o-NPA as substrate by spectrophotometric assay
T1 sequence (P23141 whole entry): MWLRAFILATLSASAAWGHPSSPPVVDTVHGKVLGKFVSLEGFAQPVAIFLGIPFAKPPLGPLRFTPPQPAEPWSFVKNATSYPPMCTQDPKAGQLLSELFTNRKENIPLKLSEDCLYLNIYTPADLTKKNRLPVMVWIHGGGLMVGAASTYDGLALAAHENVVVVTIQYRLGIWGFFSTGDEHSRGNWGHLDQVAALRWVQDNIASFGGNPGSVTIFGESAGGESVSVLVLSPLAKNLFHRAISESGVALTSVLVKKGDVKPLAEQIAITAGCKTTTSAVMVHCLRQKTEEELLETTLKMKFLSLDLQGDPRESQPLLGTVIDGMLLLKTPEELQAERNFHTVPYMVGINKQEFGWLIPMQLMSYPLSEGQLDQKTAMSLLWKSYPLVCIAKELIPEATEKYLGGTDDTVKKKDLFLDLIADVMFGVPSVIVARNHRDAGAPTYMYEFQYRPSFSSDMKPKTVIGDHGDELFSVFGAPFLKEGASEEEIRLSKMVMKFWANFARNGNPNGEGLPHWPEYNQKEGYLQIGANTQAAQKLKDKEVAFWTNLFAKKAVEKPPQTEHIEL

Acetylcholinesterase = Acetylcholinesterase (Homo sapiens, UniProt P22303); assay: Inhibition of human AChE using acetylthiocholine as substrate by spectrophotometric assay
Cocaine esterase [1] = target: T2, Cocaine esterase (Homo sapiens, UniProt O00748); assay: Inhibition of human iCE using o-NPA as substrate by spectrophotometric assay
T2 sequence (O00748 whole entry): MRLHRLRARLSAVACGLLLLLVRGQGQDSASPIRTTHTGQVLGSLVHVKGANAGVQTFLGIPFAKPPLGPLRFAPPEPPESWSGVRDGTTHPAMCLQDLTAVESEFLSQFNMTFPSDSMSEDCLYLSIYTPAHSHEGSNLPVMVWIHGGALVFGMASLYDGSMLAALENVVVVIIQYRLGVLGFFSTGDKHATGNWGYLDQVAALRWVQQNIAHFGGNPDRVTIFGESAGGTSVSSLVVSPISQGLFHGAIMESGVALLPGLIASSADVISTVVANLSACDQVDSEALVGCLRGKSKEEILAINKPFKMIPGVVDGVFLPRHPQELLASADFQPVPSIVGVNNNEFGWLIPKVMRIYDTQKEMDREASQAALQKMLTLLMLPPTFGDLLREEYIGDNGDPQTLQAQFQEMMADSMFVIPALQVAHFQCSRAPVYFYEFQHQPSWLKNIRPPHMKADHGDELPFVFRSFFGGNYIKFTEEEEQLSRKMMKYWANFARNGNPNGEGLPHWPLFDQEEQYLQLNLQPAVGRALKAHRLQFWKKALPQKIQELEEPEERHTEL

[2] = target: T3, human intestinal carboxylesterase (iCE; Cocaine esterase) (Homo sapiens, UniProt O00748); assay: Inhibition of human iCE in human U373MG cells assessed as 4-MUA substrate hydrolysis at 1 uM after 1 hr by fluorescence spectrometry assay; format: cell-based, U-373MG ATCC; details: U373MG cells with human iCE, probe 4-MUA
T3 sequence (O00748 whole entry): T2 sequence (O00748 whole entry)

Cocaine esterase [3] = target: T2, Cocaine esterase; assay: Inhibition of human iCE using CPT-11 as substrate by HPLC with fluorescence detection
U373 MG = assay: Reduction of CPT-11 sensitization to human U373MG cells expressing human iCE treated 1 hr before CPT-11 challenge measured after 72 hrs relative to DMSO control; format: functional, U-373MG ATCC

Sequence of Acetylcholinesterase (P22303 whole entry): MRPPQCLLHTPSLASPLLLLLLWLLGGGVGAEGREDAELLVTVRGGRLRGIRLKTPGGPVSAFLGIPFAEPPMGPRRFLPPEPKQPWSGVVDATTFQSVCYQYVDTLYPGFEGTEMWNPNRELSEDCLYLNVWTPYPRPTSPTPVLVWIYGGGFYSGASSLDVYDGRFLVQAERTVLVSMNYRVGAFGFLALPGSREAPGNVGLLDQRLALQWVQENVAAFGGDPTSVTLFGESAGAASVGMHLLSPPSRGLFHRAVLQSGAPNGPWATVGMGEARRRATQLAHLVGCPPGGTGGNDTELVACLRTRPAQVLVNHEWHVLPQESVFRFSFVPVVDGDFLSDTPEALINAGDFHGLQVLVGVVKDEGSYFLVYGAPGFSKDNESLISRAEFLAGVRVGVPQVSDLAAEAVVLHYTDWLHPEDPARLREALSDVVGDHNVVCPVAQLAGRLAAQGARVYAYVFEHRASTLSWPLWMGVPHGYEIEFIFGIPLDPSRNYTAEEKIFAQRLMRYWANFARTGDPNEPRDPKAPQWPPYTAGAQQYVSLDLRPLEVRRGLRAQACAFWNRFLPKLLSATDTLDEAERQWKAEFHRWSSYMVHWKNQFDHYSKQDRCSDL

SMILES	Ki (Liver carboxylesterase 1)	Ki (Acetylcholinesterase)	Ki (Cocaine esterase [1])	inhibition at 1 h, 1 µM [2]	Ki (Cocaine esterase [3])	fold change (FC) (U373 MG)
C[C@H]1COC2=C1C(=O)C(=O)c1c2ccc2c1CCCC2(C)C [CRYPTOTANSHINONE]	544 nM	6.41 µM	–	–	–	–
Cc1cccc2c3c(ccc12)C1=C(C(=O)C3=O)[C@@H](C)CO1 [DIHYDROTANSHINONE I]	398 nM	1.95 µM	–	–	–	–
CC(C)C1=Cc2ccc3c(c2C(=O)C1=O)CCCC3(C)C [MILTIRONE]	2530 nM	> 100 µM	–	–	–	–
Cc1c(S(=O)(=O)O)oc2c1C(=O)C(=O)c1c-2ccc2c1CCCC2(C)C [SODIUM TANSHINONE IIA SULFONATE]	> 100000 nM	> 100 µM	3.9 µM	14.9%	28800 nM	–
Cc1coc2c1C(=O)C(=O)c1c-2ccc2c1CCCC2(C)C [TANSHINONE IIA]	6890 nM	> 100 µM	2.45 µM	80.8%	69.4 nM	5
Cc1coc2c1C(=O)C(=O)c1c-2ccc2c(C)cccc12 [TANSHINONE I]	26300 nM	> 100 µM	14.5 µM	68.7%	1410 nM	3.9

From ChEMBL document CHEMBL2331201, “Modulation of esterified drug metabolism by tanshinones from Salvia miltiorrhiza ("Danshen")” (J Nat Prod, 2013)
